# Experimental data from patent US6461997B1, “Triazole sulfones having herbicidal activity” (Monsanto Technology LLC, priority 1999, dated 2002).
# Experiments:
# STEME (common chickweed) = test: Pre-emergence herbicidal activity, cool season; format: in vivo, Stellaria media; settings: lowest tested rate with 80% or greater inhibition; rates 300, 100, 30, 10 g/ha; about 14 days
# Summary of the method: (§1)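 Seeds sown in sterilised fertilised topsoil received surface-applied compound in 50:50 acetone/water, typically at 300, 100, 30 and 10 g/ha, then greenhouse-grown at 30/21° C (warm-season species) or 18/13° C (cool-season species). Percent inhibition versus untreated plants was scored at about 14 days, giving GR80; an asterisk marks activity short of 80% at the top rate.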
# SORVU (shattercane) = test: Pre-plant incorporated (PPI) herbicidal activity, warm season; format: in vivo, Sorghum vulgare
# Procedure: (§2) In another set of tests, the pre-plant incorporated (PPI) activity of compounds of this invention was evaluated on the same species as for the pre-emergence tests described above. In the PPI tests the following procedure, designed to simulate PPI application, was used.
# (§3) A pre-prepared topsoil mixture (described above) was placed in a pot and compacted to a depth of 1.0 to 1.25 cm from the top of the pot. Seeds of each of several monocotyledonous and dicotyledonous annual plant species were placed on top of the soil. A sufficient quantity of soil to cover the seeds and level fill the pot was weighed into an open container. A known amount of the test compound was dissolved or suspended in an organic solvent and applied by spraying to this cover soil. The cover soil was thoroughly mixed to distribute the test compound throughout the cover soil, and was then applied as a cover layer over the seeds. Untreated soil was used as a cover layer for control pots. After treatment the plants were placed in a greenhouse where they received 0.64 cm of overhead irrigation. All subsequent watering consisted of a light overhead mist and/or subirrigation as needed for germination and growth. Tables 9 and 10 below relate to warm season plant species which were placed after pre-emergence treatment in a greenhouse with a 30/21° C. day/night temperature regime. Tables 11 and 12 below relates to cool season plant species placed after pre-emergence treatment in a greenhouse or growth chamber with an 18/13° C. day/night temperature regime. Only the compounds of Examples 1, 6, 8, 11, 13 and 15-20 were included in PPI tests.
# (§4) Approximately 14 days after planting and treating, the plants were observed and herbicidal efficacy recorded as percent inhibition by comparison with untreated plants.
# ABUTH (velvetleaf) = test: as above; format: in vivo, Abutilon theophrasti
# Procedure: as §2, §3, §4
# SOLNI (black nightshade) = test: as above; format: in vivo, Solanum nigrum
# Procedure: as §2, §3, §4
# POROL (common purslane) = test: Pre-emergence herbicidal activity, warm season; format: in vivo, Portulaca oleracea; settings: GR80 = lowest tested rate (300, 100, 30, 10 g/ha) with 80% or greater inhibition; approx. 14 days after treating; 30/21° C.
# Summary of the method: as §1
# rice (ORYSA) = test: Selectivity test, PPI, warm season crop; format: in vivo, Oryza sativa; settings: Oryza sativa, PPI application, read-out: Percent inhibition ORYSA
# Procedure: as §3, §4
# Additional pre-emergence and PPI tests were conducted by the procedures described above, on warm and cool season weed species in the presence of crop species, to assess herbicidal selectivity. Crop species included in warm season tests were corn (Zea mays, ZEAMX), rice (Oryza sativa, ORYSA) and soybean (Glycine max, GLYMX). Crop species included in cool season tests were wheat (Triticum aestivum, TRZAW), barley (Hordeunm vulgare, HORVX) and oilseed rape (Brassica napus, BRSNS).
# Tables 15 and 16 relate to pre-emergence and PPI tests respectively on warm season species. Table 17 relates to pre-emergence tests on cool season species.
# AMARE (redroot pigweed) = test: Pre-emergence herbicidal activity, warm season; format: in vivo, Amaranthus retroflexus
# Summary of the method: as §1
# [1] = system: LAMPU (purple deadnettle); test: Pre-plant incorporated (PPI) herbicidal activity, cool season; format: in vivo, Lamium purpureum
# Procedure: as §2, §3, §4
# ECHCG (barnyardgrass) = test: Pre-plant incorporated (PPI) herbicidal activity, warm season; format: in vivo, Echinochloa crus-galli
# Procedure: as §2, §3, §4
# [2] = pre-plant incorporated, lowest tested rate with 80% or greater inhibition, about 14 days
# [3] = pre-plant incorporated, GR80 = lowest tested rate with 80% or greater inhibition, approx. 14 days after treating, 30/21° C.
smiles,measurement,setting,value
"CCN(CC)C(=O)n1cnc(S(=O)(=O)C(F)(F)Br)n1 [Example 1, 3-(bromodifluoromethylsulfonyl)-1-(N,N-diethylcarbamoyl)-1,2,4-triazole]","Pre-emergence activity GR80, STEME",STEME (common chickweed),100 g/ha
same,inhibition at 10 g/ha,"SORVU (shattercane); Sorghum bicolor, PPI application, 10 g/ha, read-out: Percent inhibition SORVU",20%
same,inhibition at 30 g/ha,"SORVU (shattercane); Sorghum bicolor, PPI application, 30 g/ha, read-out: Percent inhibition SORVU",80%
same,inhibition at 100 g/ha,"SORVU (shattercane); Sorghum bicolor, PPI application, 100 g/ha, read-out: Percent inhibition SORVU",100%
same,inhibition at 300 g/ha,"SORVU (shattercane); Sorghum bicolor, PPI application, 300 g/ha, read-out: Percent inhibition SORVU",100%
same,inhibition at 900 g/ha,"SORVU (shattercane); Sorghum bicolor, PPI application, 900 g/ha, read-out: Percent inhibition SORVU",100%
same,"PPI activity GR80, SORVU",SORVU (shattercane); [2],100 g/ha
same,inhibition at 10 g/ha,"ABUTH (velvetleaf); Abutilon theophrasti, PPI application, 10 g/ha, read-out: Percent inhibition ABUTH",0%
same,inhibition at 30 g/ha,"ABUTH (velvetleaf); Abutilon theophrasti, PPI application, 30 g/ha, read-out: Percent inhibition ABUTH",0%
same,inhibition at 100 g/ha,"ABUTH (velvetleaf); Abutilon theophrasti, PPI application, 100 g/ha, read-out: Percent inhibition ABUTH",0%
same,inhibition at 300 g/ha,"ABUTH (velvetleaf); Abutilon theophrasti, PPI application, 300 g/ha, read-out: Percent inhibition ABUTH",20%
same,inhibition at 900 g/ha,"ABUTH (velvetleaf); Abutilon theophrasti, PPI application, 900 g/ha, read-out: Percent inhibition ABUTH",80%
same,PPI activity (GR80) ABUTH,ABUTH (velvetleaf); [3],100 g/ha
same,inhibition at 10 g/ha,"SOLNI (black nightshade); Solanum nigrum, PPI application, 10 g/ha, read-out: Percent inhibition SOLNI",0%
same,inhibition at 30 g/ha,"SOLNI (black nightshade); Solanum nigrum, PPI application, 30 g/ha, read-out: Percent inhibition SOLNI",0%
same,inhibition at 100 g/ha,"SOLNI (black nightshade); Solanum nigrum, PPI application, 100 g/ha, read-out: Percent inhibition SOLNI",0%
same,inhibition at 300 g/ha,"SOLNI (black nightshade); Solanum nigrum, PPI application, 300 g/ha, read-out: Percent inhibition SOLNI",75%
same,inhibition at 900 g/ha,"SOLNI (black nightshade); Solanum nigrum, PPI application, 900 g/ha, read-out: Percent inhibition SOLNI",100%
same,PPI activity (GR80) SOLNI,SOLNI (black nightshade); [3],30 g/ha
same,Pre-emergence activity (GR80) POROL,POROL (common purslane),100 g/ha
same,inhibition at 10 g/ha,rice (ORYSA); 10 g/ha,0%
same,inhibition at 30 g/ha,rice (ORYSA); 30 g/ha,0%
same,inhibition at 100 g/ha,rice (ORYSA); 100 g/ha,40%
same,inhibition at 300 g/ha,rice (ORYSA); 300 g/ha,60%
same,inhibition at 900 g/ha,rice (ORYSA); 900 g/ha,90%
same,inhibition at 10 g/ha,"AMARE (redroot pigweed); Amaranthus retroflexus, pre-emergence application, 10 g/ha, read-out: Percent inhibition, weed AMARE",0%
same,inhibition at 30 g/ha,"AMARE (redroot pigweed); Amaranthus retroflexus, pre-emergence application, 30 g/ha, read-out: Percent inhibition, weed AMARE",0%
same,inhibition at 100 g/ha,"AMARE (redroot pigweed); Amaranthus retroflexus, pre-emergence application, 100 g/ha, read-out: Percent inhibition, weed AMARE",60%
same,inhibition at 300 g/ha,"AMARE (redroot pigweed); Amaranthus retroflexus, pre-emergence application, 300 g/ha, read-out: Percent inhibition, weed AMARE",50%
same,inhibition at 900 g/ha,"AMARE (redroot pigweed); Amaranthus retroflexus, pre-emergence application, 900 g/ha, read-out: Percent inhibition, weed AMARE",90%
same,Pre-emergence activity (GR80) AMARE,"AMARE (redroot pigweed); GR80 = lowest tested rate (300, 100, 30, 10 g/ha) with 80% or greater inhibition, approx. 14 days after treating, 30/21° C.",30 g/ha
same,inhibition at 30 g/ha,"[1]; Lamium purpureum, weed, PPI application, 30 g/ha, read-out: Percent inhibition LAMPU",80%
same,inhibition at 100 g/ha,"[1]; Lamium purpureum, weed, PPI application, 100 g/ha, read-out: Percent inhibition LAMPU",70%
same,inhibition at 300 g/ha,"[1]; Lamium purpureum, weed, PPI application, 300 g/ha, read-out: Percent inhibition LAMPU",95%
same,inhibition at 900 g/ha,"[1]; Lamium purpureum, weed, PPI application, 900 g/ha, read-out: Percent inhibition LAMPU",100%
same,"PPI activity GR80, LAMPU",[1]; [2],100 g/ha
same,inhibition at 10 g/ha,"ECHCG (barnyardgrass); Echinochloa crus-galli, PPI application, 10 g/ha, read-out: Percent inhibition ECHCG",0%
same,inhibition at 30 g/ha,"ECHCG (barnyardgrass); Echinochloa crus-galli, PPI application, 30 g/ha, read-out: Percent inhibition ECHCG",20%
same,inhibition at 100 g/ha,"ECHCG (barnyardgrass); Echinochloa crus-galli, PPI application, 100 g/ha, read-out: Percent inhibition ECHCG",99%
same,inhibition at 300 g/ha,"ECHCG (barnyardgrass); Echinochloa crus-galli, PPI application, 300 g/ha, read-out: Percent inhibition ECHCG",100%
same,inhibition at 900 g/ha,"ECHCG (barnyardgrass); Echinochloa crus-galli, PPI application, 900 g/ha, read-out: Percent inhibition ECHCG",100%
same,"PPI activity GR80, ECHCG",ECHCG (barnyardgrass); [2],30 g/ha
